In patent US20250026734A1 (priority 2021, published 2025):

What was measured:
[1] = in vitro; details: human
[2] = tested on: SARS-CoV-2 (WK-521); assay: microbe, parasite or virus in culture; format: cell-based; details: Severe acute respiratory syndrome coronavirus 2, HEK-293T, 72 h; for IC50: read-out: IC50 (concentration of agent which reduces viral production and replication by 50%); for IC90: read-out: IC90 (concentration of agent which reduces viral production and replication by 90%)
[3] = tested on: MERS-CoV (MERS-CoV-EMC/2012); assay: microbe, parasite or virus in culture; format: cell-based; details: Middle East respiratory syndrome-related coronavirus, HEK-293T
[4] = tested on: SARS-CoV (SARS-CoV-HKU-39849); assay: microbe, parasite or virus in culture; format: cell-based; details: Severe acute respiratory syndrome coronavirus, HEK-293T
[5] = in vitro; details: African green monkey

For CCCCn1c(=O)c2cc(F)c(NCc3ccc(O)cc3)cc2c2cc(C(O)(C(F)(F)F)C(F)(F)F)ccc21 [NR-55], the CC50 [1] was greater than 80 µM, the IC50 [2] was 0.15 µM and the IC90 [2] was 6.79 µM.

In the case of CCCCn1c(=O)c2cc(F)c(NCCO)cc2c2cc(C(O)(C(F)(F)F)C(F)(F)F)ccc21 [NR-56], the CC50 [1] is reported as 29.5 µM, the IC50 [2] is reported as 0.29 µM and the IC90 [2] is reported as 8.07 µM.

Molecule CCCCn1c(=O)c2cc(F)c(NC3CCOC3)cc2c2cc(C(O)(C(F)(F)F)C(F)(F)F)ccc21 (centres unmarked) [NR-78] has a CC50 [1] of 17.8 µM, an IC50 [2] of 0.65 µM and an IC90 [2] of 3.59 µM.

With CCCCn1c(=O)c2ccc(NCC(N)=O)cc2c2cc(C(O)(C(F)(F)F)C(F)(F)F)ccc21 [NR-96] the CC50 [1] was greater than 20 µM, the IC50 [2] was 0.68 µM and the IC90 [2] was 4 µM.

Molecule CCCCn1c(=O)c2ccc(NC(=O)C(C)C)cc2c2cc(C(O)(C(F)(F)F)C(F)(F)F)ccc21 [NR-16] has a CC50 [1] of 15.8 µM, an IC50 [2] of 0.575 µM and an IC90 [2] of 2.03 µM.

For CCCCn1c(=O)c2ccc(NC(=O)C(C)N)c(F)c2c2cc(C(O)(C(F)(F)F)C(F)(F)F)ccc21 (centres unmarked) [NR-44], the CC50 [1] was 10.3 µM, the IC50 [2] was 0.38 µM and the IC90 [2] was 3.76 µM.

CCCCn1c(=O)c2cc(NC(=O)NCCO)ccc2c2cc(C(O)(C(F)(F)F)C(F)(F)F)ccc21 [NR-72] gave a CC50 [1] of 9 µM, an IC50 [2] of 0.62 µM and an IC90 [2] of 2.29 µM.

In the case of CCCCn1c(=O)c2cc(NC=O)ccc2c2cc(C(O)(C(F)(F)F)C(F)(F)F)ccc21 [NR-86], the CC50 [1] is reported as 16.7 µM, the IC50 [2] is reported as 0.08 µM and the IC90 [2] is reported as 3.07 µM.

For CCCCn1c(=O)c2ccc(C(CCO)CCO)cc2c2cc(C(O)(C(F)(F)F)C(F)(F)F)ccc21 [NR-101], the CC50 [1] was greater than 20 µM, the IC50 [2] was 0.54 µM and the IC90 [2] was greater than 10 µM.

In the case of CCCCn1c(=O)c2ccc(NCCCCO)cc2c2cc(C(O)(C(F)(F)F)C(F)(F)F)ccc21 [NR-99], the CC50 [1] is reported as greater than 20 µM, the IC50 [2] is reported as 1.3 µM and the IC90 [2] is reported as greater than 10 µM.

With CCCCn1c(=O)c2cc(F)c(N)cc2c2cc(C(O)(C(F)(F)F)C(F)(F)F)ccc21 [NR-54] the CC50 [1] was 27.2 µM, the IC50 [2] was 0.94 µM and the IC90 [2] was 4.64 µM.

Work on CCCCn1c(=O)c2ccc(NC(=O)[C@H](N)CO)cc2c2cc(C(O)(C(F)(F)F)C(F)(F)F)ccc21 [NR-47] yielded a CC50 [1] of 11.7 µM, an IC50 [2] of 0.7 µM and an IC90 [2] of 3.3 µM.

In the case of CCCCn1c(=O)c2cc(NC(=O)[C@@H]3C[C@@H](O)CN3)ccc2c2cc(C(O)(C(F)(F)F)C(F)(F)F)ccc21 [NR-52], the CC50 [1] is reported as 18.1 µM, the IC50 [2] is reported as 0.14 µM and the IC90 [2] is reported as 2.43 µM.

With CCCCn1c(=O)c2ccc(N)cc2c2cc(C(O)(C(F)(F)F)C(F)(F)F)ccc21 [NR-31-5] the CC50 [1] was greater than 20 µM, the IC50 [2] was 0.546 µM and the IC90 [2] was 2.63 µM.

Molecule CCCCn1c(=O)c2ccc(NC(C)=O)cc2c2cc(C(O)(C(F)(F)F)C(F)(F)F)ccc21 [TK-04] has a CC50 [1] of 7.13 µM, an IC50 [2] of 0.576 µM and an IC90 [2] of 5.97 µM.

Work on CCCCn1c(=O)c2ccc(NCCCO)cc2c2cc(C(O)(C(F)(F)F)C(F)(F)F)ccc21 [NR-98] yielded a CC50 [1] greater than 20 µM, an IC50 [2] of 1.16 µM and an IC90 [2] greater than 10 µM.

CCCCn1c(=O)c2ccc(NC(=O)CCO)cc2c2cc(C(O)(C(F)(F)F)C(F)(F)F)ccc21 [NR-38] showed a CC50 [1] greater than 20 µM, an IC50 [2] of 0.058 µM and an IC90 [2] greater than 20 µM.

With CCCCn1c(=O)c2ccc(NCCN)cc2c2cc(C(O)(C(F)(F)F)C(F)(F)F)ccc21 [NR-102] the CC50 [1] was 5.5 µM, the IC50 [2] was 0.75 µM and the IC90 [2] was 2.4 µM.

In the case of CCCn1c(=O)c2ccc(NCCO)cc2c2cc(C(O)(C(F)(F)F)C(F)(F)F)ccc21 [NR-92], the CC50 [1] is reported as greater than 20 µM, the IC50 [2] is reported as 0.72 µM and the IC90 [2] is reported as 3.42 µM.

Molecule CCCCn1c(=O)c2ccc(NC(=O)[C@H]3CC(O)CN3)cc2c2cc(C(O)(C(F)(F)F)C(F)(F)F)ccc21 (some centres unmarked) [NR-30] has an IC50 [3] of 12.5 µM, an IC90 [3] of 21.8 µM and an IC50 [4] of 6.95 µM. For the same molecule, the IC90 [4] was 19.4 µM, the CC50 [1] was 13.6 µM and the IC50 [2] was 0.059 µM. It also gave an IC90 [2] of 1.84 µM.

CCCCn1c(=O)c2ccc(NC(CO)CO)cc2c2cc(C(O)(C(F)(F)F)C(F)(F)F)ccc21 [NR-89] gave an IC50 [3] of 6.77 µM, an IC90 [3] of 19 µM and an IC50 [4] of 4.74 µM. For the same molecule, the IC90 [4] was 20.2 µM, the CC50 [1] was greater than 20 µM and the IC50 [2] was 0.35 µM. The IC90 [2] was 6.1 µM.

For CC(C)Cn1c(=O)c2ccc(NCCO)cc2c2cc(C(O)(C(F)(F)F)C(F)(F)F)ccc21 [NR-91], the CC50 [1] was greater than 20 µM, the IC50 [2] was 0.51 µM and the IC90 [2] was 4 µM.

In the case of CCCCn1c(=O)c2ccc(NCCN(C)C)cc2c2cc(C(O)(C(F)(F)F)C(F)(F)F)ccc21 [NR-105], the CC50 [1] is reported as 7.4 µM, the IC50 [2] is reported as 1.48 µM and the IC90 [2] is reported as greater than 10 µM.

Work on CCCCn1c(=O)c2ccc(N)c(SC)c2c2cc(C(O)(C(F)(F)F)C(F)(F)F)ccc21 [NR-87] yielded a CC50 [1] of 18.2 µM, an IC50 [2] of 0.85 µM and an IC90 [2] of 4.9 µM.

CCCCn1c(=O)c2ccc(NCCO)cc2c2cc(C(O)(C(F)(F)F)C(F)(F)F)ccc21 [NR-31] gave an IC50 [3] of 2.15 µM, an IC90 [3] of 5.96 µM and an IC50 [4] of 0.74 µM. The IC90 [4] was 6.24 µM, the CC50 [5] was 17.6 µM and the CC50 [1] was greater than 20 µM. The IC50 [2] was 0.063 µM and the IC90 [2] was 1.76 µM.

Work on CCCCn1c(=O)c2ccc(NCCCCCO)cc2c2cc(C(O)(C(F)(F)F)C(F)(F)F)ccc21 [NR-100] yielded a CC50 [1] greater than 20 µM, an IC50 [2] of 0.59 µM and an IC90 [2] greater than 10 µM.

With CCCCn1c(=O)c2ccc(NC(=O)C(C)N)cc2c2cc(C(O)(C(F)(F)F)C(F)(F)F)ccc21 (centres unmarked) [NR-28] the CC50 [1] was 11.8 µM, the IC50 [2] was 0.12 µM and the IC90 [2] was 1.68 µM.

Work on CCCCn1c(=O)c2ccc(NCCC)cc2c2cc(C(O)(C(F)(F)F)C(F)(F)F)ccc21 [NR-103] yielded a CC50 [1] greater than 20 µM, an IC50 [2] of 2.35 µM and an IC90 [2] greater than 10 µM.

Molecule CCCCn1c(=O)c2cc(NC(=O)C(C)N)ccc2c2cc(C(O)(C(F)(F)F)C(F)(F)F)ccc21 (centres unmarked) [NR-50] has a CC50 [1] of 12 µM, an IC50 [2] of 0.65 µM and an IC90 [2] of 4.6 µM.

Work on CCCCn1c(=O)c2ccc(NC(=O)CO)cc2c2cc(C(O)(C(F)(F)F)C(F)(F)F)ccc21 [NR-17] yielded a CC50 [1] greater than 20 µM, an IC50 [2] of 0.519 µM and an IC90 [2] of 3.35 µM.

Work on CCCCn1c(=O)c2ccc(NCC(O)CO)cc2c2cc(C(O)(C(F)(F)F)C(F)(F)F)ccc21 (centres unmarked) [NR-90] yielded an IC50 [3] of 3.84 µM, an IC90 [3] of 13.6 µM and an IC50 [4] of 2.4 µM. The IC90 [4] was 14.2 µM, the CC50 [1] was greater than 20 µM and the IC50 [2] was 0.58 µM. For the same molecule, the IC90 [2] was 3.87 µM.
